Values joined by “and” are separate entries in the source; they are usually repeats but may differ in a detail not shown here. Equal values may be shown once.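 Results reflect a 48-hour exposure of cells in 96-well plates to compound at five concentrations. At the GI50, growth is halved. Definition used: TGI = concentration required for complete inhibition of growth.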
What was measured:
Assay in all cases: NCI-60 cell line screen, 48 h
[1] = test system: SF-268 CNS
[2] = test system: T-47D breast
[3] = test system: HL-60(TB) leukemia
[4] = test system: DU-145 prostate
[5] = test system: NCI-H23 lung
[6] = test system: OVCAR-8 ovarian
[7] = test system: COLO 205 colon
[8] = test system: TK-10 renal

Row | Structure (SMILES) | GI50 [1] | TGI [1] | GI50 [2] | TGI [2] | GI50 [3] | TGI [3] | GI50 [4] | TGI [4] | GI50 [5] | TGI [5] | GI50 [6] | TGI [6] | GI50 [7] | TGI [7] | GI50 [8] | TGI [8]
1 | COC(=O)c1ccc(NC(=O)c2ccc(NC3=C(Cl)C(=O)N(Cc4ccccc4)C3=O)cc2)cc1 | 22.2 µM | 59 µM | 74.1 µM | > 100 µM | 12.8 µM | 25.4 µM | 17.4 µM | 31.2 µM | 12.1 µM | 24.4 µM | 11 µM | 24.7 µM | 37 µM | > 100 µM |  | 
2 | C(=C\c1ccncc1)/c1ccncc1 | > 100 µM | > 100 µM | > 100 µM | > 100 µM | > 100 µM | > 100 µM | > 100 µM | > 100 µM | > 100 µM | > 100 µM | > 100 µM | > 100 µM | > 100 µM | > 100 µM | > 100 µM | > 100 µM
3 | COc1cc2c3c(n(CCN4CCOCC4)c(=O)c2cc1OC)-c1ccccc1C3=O | > 100 µM | > 100 µM | 27.4 µM | 88 µM | 35.7 µM | > 100 µM | > 100 µM | > 100 µM |  |  | > 100 µM | > 100 µM | > 100 µM | > 100 µM | > 100 µM | > 100 µM
4 | CN(C)CC1C(=O)O[C@H]2[C@H]1CC/C(COC(=O)NCc1ccc(Cn3c(=O)sn(CCCI)c3=O)cc1)=C\CC[C@@]1(C)O[C@@H]21 (some centres not stated) | 4.84 µM | 11.4 µM |  |  |  |  | 1.07 µM | 2.16 µM | 4.56 µM | 12.9 µM | 1.16 µM | 2.72 µM | 0.833 µM | 1.66 µM | 0.862 µM | 1.64 µM
5 | Cn1cc(C2=C(c3cc[nH]c3)C(=O)NC2=O)c2ccccc21 | > 25 µM | > 25 µM | > 17.5 µM | > 25 µM | > 25 µM | > 25 µM | > 25 µM | > 25 µM | > 25 µM | > 25 µM | > 25 µM | > 25 µM | > 25 µM | > 25 µM | > 25 µM | > 25 µM
6 | Cc1nc2sc(C(=O)Nc3ccccc3)c(N)c2cc1C(O)c1ccccc1 (configuration not stated) | 0.917 µM | > 100 µM | 1.27 µM | > 31.8 µM | 0.234 µM | 0.657 µM | 0.362 µM | 20.9 µM | 0.664 µM | > 100 µM | 0.408 µM | > 100 µM | 0.376 µM | 4.99 µM | 6.03 µM | > 100 µM
7 | C=C(C)C1CCC2=CC(CC3(C)OC3C3=CC(C(=O)OC)=C(C1)O3)OC2=O (configuration not stated) |  | > 100 µM |  | > 100 µM |  |  |  | > 100 µM |  | > 100 µM |  | > 100 µM |  |  |  | > 100 µM
8 | O=c1cc(-c2ccccc2)oc2cc(OCCCCCN3CCOCC3)cc(O)c12 | 75.9 µM | > 100 µM | 42.5 µM | > 100 µM | 71 µM | > 100 µM | > 100 µM | > 100 µM |  |  | 68.2 µM | > 100 µM | > 100 µM | > 100 µM | 51.4 µM | > 100 µM
9 | CCC[n+]1cc2cc3c(cc2c2c1-c1cc4c(cc1C2)OCO4)OCO3 (tested in a mixture with another compound) | 0.0649 µM | 1.95 µM | 0.267 µM | 1.61 µM | 2.98 µM | 14.8 µM | 1.27 µM | 7.73 µM | 0.679 µM | 3.02 µM | 0.575 µM | 12.2 µM | 0.49 µM | 3.79 µM | 4.11 µM | 38.6 µM
10 | COc1cc2c(NC3CCN(C(C)C)CC3)nc(C3CCCCC3)nc2cc1OCCCN1CCCC1 | 3.37 µM | 14.1 µM | 2.54 µM | 7.08 µM | 3.03 µM | 10.9 µM | 4.75 µM | 17.1 µM | 10.8 µM | 25.5 µM | 3.97 µM | 15.6 µM | 1.66 µM | 3.1 µM | 2.15 µM | 5.54 µM
11 | CC(=O)c1ccc2c3c1[C@H]1O[C@H]1c1cccc(c1-3)[C@@H]1O[C@H]21 |  | 3.86 µM |  | 6.55 µM |  | 5.75 µM |  | 7.19 µM |  | 3.42 µM |  | 3.49 µM |  | 3.59 µM |  | > 51.2 µM
12 | [Cl][Hg][c]1ccc2ccccc2c1 | 2.22 µM | 5.91 µM | 2.05 µM | 4.85 µM | 0.655 µM | 2.36 µM | 4.97 µM | 15.3 µM | 1.51 µM | 3.95 µM | 2.32 µM | 6.17 µM | 2.3 µM | 5.18 µM | 2.92 µM | 6.62 µM
13 | Oc1ccc(Cl)cc1Sc1cc(Cl)ccc1O | 3.51 µM | 31.9 µM and 13.4 µM | 2.76 µM | 20.8 µM and 9.93 µM | 3.19 µM | 37.3 µM and 7.52 µM | 3.83 µM | 30.5 µM and 13.7 µM | 2.23 µM | 24.2 µM and 7.33 µM | 3.36 µM | 42.7 µM and 10.8 µM | 5.93 µM | 39.9 µM and 20.2 µM | 8.02 µM | 31.3 µM and 31.1 µM
14 | CCn1cc(C(=O)N/N=C/c2cccs2)c(=O)c2cc(F)c(N3CCNC(C)C3)c(F)c21 (configuration not stated) | 1.73 µM | 3.44 µM | 1.68 µM | 3.45 µM |  |  | 1.67 µM | 3.03 µM | 1.79 µM | 3.47 µM |  |  | 1.78 µM | 3.52 µM | 1.72 µM | 3.25 µM
15 | Cc1ccnc2c(NC(C)CCCN)cc(O)c(O)c12 (configuration not stated) | 21.2 µM | 74.2 µM | 11.6 µM | 43.7 µM | 2.12 µM | 5.33 µM | 11.2 µM | 24.2 µM | 3.98 µM | 27.3 µM | 6.62 µM | 82.6 µM | 5.15 µM | 23.9 µM | 47.7 µM | > 100 µM
16 | CC(=O)[CH-]C(=O)c1ccccc1.CC(=O)[CH-]C(=O)c1ccccc1.CC[C@H](/C=C/C(C)[C@H]1CCC2[C@@H]3CC=C4C[C@@H]([O-])CC[C@]4(C)C3CC[C@@]21C)C(C)C.CC[C@H](/C=C/C(C)[C@H]1CCC2[C@@H]3CC=C4C[C@@H]([O-])CC[C@]4(C)C3CC[C@@]21C)C(C)C.Cl.[Ti+4] (some centres not stated) | > 25 µM | > 25 µM |  |  | 6.35 µM | 16.6 µM |  |  | > 25 µM | > 25 µM | > 25 µM | > 25 µM | > 25 µM | > 25 µM | > 25 µM | > 25 µM
17 | Cc1cc(Cl)nc(N(CCCNc2ccnc3cc(Cl)ccc23)Cc2cccs2)n1 | 3.36 µM | 16.8 µM | 1.82 µM | 8.02 µM |  |  | 2.23 µM | 14.7 µM | 1.28 µM | 5.8 µM | 2.06 µM | 10.4 µM | 1.39 µM | 3.58 µM | 2.07 µM | 12.1 µM
18 | CCN(CC)S(=O)(=O)c1cccc(-c2ccc3c(NC(=O)C4CC4)n[nH]c3c2)c1 | 2.34 µM | > 6.25 µM | 1.05 µM | > 6.25 µM | 2.17 µM | > 6.25 µM | 2.26 µM | > 6.25 µM | 1.86 µM | > 6.25 µM | 2.69 µM | > 6.25 µM | 1.71 µM | > 6.25 µM | 5.06 µM | > 6.25 µM
19 | Cc1c(NC(=O)Nc2c(Cl)cccc2Cl)c(=O)n(-c2ccccc2)n1C |  | > 100 µM |  | > 100 µM |  | > 100 µM |  | > 100 µM |  | > 100 µM |  | > 100 µM |  | > 100 µM |  | > 100 µM
20 | COc1cc2c3c(n([C@@H]4CCOC4)c(=O)c2cc1OC)-c1cc2c(cc1C3=O)OCO2 | < 0.01 µM | > 100 µM |  |  | < 0.01 µM | > 100 µM | < 0.01 µM | > 100 µM |  |  | 0.0132 µM | > 100 µM | 0.0193 µM | > 100 µM | > 100 µM | > 100 µM
21 | O=C1c2ccn(CCCNC(CO)(CO)CO)c2C(=O)c2c1c(O)c1ccccc1c2O | 24.2 µM | > 100 µM | 16.4 µM | 50.9 µM |  |  | 11.5 µM | 25 µM | 15.2 µM | 30.5 µM | 15 µM | 36.9 µM | 13.2 µM | 29.4 µM | 1.32 µM | 22.6 µM
22 | Cc1cc(-c2nc3n(c2/C=N/N=C(N)N)CCS3)c(C)s1 | 19.1 µM | 35.5 µM | 17.6 µM | 32.5 µM | 36.9 µM | > 100 µM | 18.2 µM | 34.7 µM | 15 µM | 28.2 µM | 32.6 µM | 63.4 µM |  |  | 33.6 µM | > 100 µM
23 | C=CCC(N[C@H](CO)c1ccccc1)c1ccccn1 (some centres not stated) |  |  | > 100 µM | > 100 µM | 38.6 µM | > 100 µM | > 100 µM | > 100 µM | > 100 µM | > 100 µM | > 100 µM | > 100 µM | > 100 µM | > 100 µM | > 100 µM | > 100 µM
24 | COc1ccc2c(CCCc3ccc(Cl)cc3Cl)c3[n+](cc2c1OC)CCc1cc2c(cc1-3)OCO2 |  |  | 0.325 µM | 1.84 µM | 0.23 µM | 0.838 µM | 0.639 µM | 1.96 µM | 0.327 µM | 1.42 µM |  |  |  |  |  | 
25 | O=C(NCCCl)Nc1ccccc1 |  | > 100 µM |  | > 100 µM |  | > 100 µM |  | > 100 µM |  | > 100 µM |  | > 100 µM |  | > 100 µM |  | 

— PubChem BioAssay (NCI)
